Assay results published in patent US20070191398A1, “Fungicidal mixtures” (priority 2004, published 2007).

Test system: Plasmopara viticola
Test: persistency against peronospora of grapevines caused by Plasmopara viticola, 7-day protective application
Assay type: in vivo, Plasmopara viticola on potted vines
Details: individual active compound, 7-day protective application on grapevine leaves
Protocol: The active compounds, separately or jointly, were prepared as a stock solution comprising 0.25% by weight of active compound in acetone or DMSO. 1% by weight of the emulsifier Uniperol® EL (wetting agent having emulsifying and dispersant action based on ethoxylated alkylphenols) was added to this solution, and the mixture was diluted with water to the desired concentration.
Use example—persistency against peronospora of grapevines caused by Plasmopara viticola, 7-day protective application Leaves of potted vines were sprayed to runoff point with an aqueous suspension having the concentration of active compound stated below. 7 days later, the undersides of the leaves were inoculated with an aqueous sporangia suspension of Plasmopara viticola. The grapevines were then initially placed in a water-vapor-saturated chamber at 24° C. for 48 hours and then in a greenhouse at 20-30° C. for 5 days. After this period of time, the plants were again placed in a humid chamber for 16 hours to accelerate sporangiophore eruption. The extent of the development of the disease on the undersides of the leaves was then determined visually.
The visually determined percentages of infected leaf areas were converted into efficacies in % of the untreated control:
The efficacy (E) is calculated as follows using Abbot's formula: E=(1−α/β)·100 α corresponds to the fungicidal infection of the treated plants in % and β corresponds to the fungicidal infection of the untreated (control) plants in % An efficacy of 0 means that the infection level of the treated plants corresponds to that of the untreated control plants; an efficacy of 100 means that the treated plants were not infected.
The expected efficacies of mixtures of active compounds were determined using Colby's formula (Colby, S. R. “Calculating synergistic and antagonistic responses of herbicide combinations”, Weeds, 15, 20-22, 1967) and compared with the observed efficacies.
Colby's formula: E=x+y−x·y/100
E expected efficacy, expressed in % of the untreated control, when using the mixture of the active compounds A and B at the concentrations a and b x efficacy, expressed in % of the untreated control, when using the active compound A at the concentration a y efficacy, expressed in % of the untreated control, when using the active compound B at the concentration b

SMILES: O=C(NCc1ncc(C(F)(F)F)cc1Cl)c1c(Cl)cccc1Cl [II, 2,6-dichloro-N-(3-chloro-5-trifluoromethylpyridin-2-ylmethyl)-benzamide]
- Efficacy in % of the untreated control (2.5 ppm in the spray liquor): 65%
- Efficacy in % of the untreated control (5 ppm in the spray liquor): 76%

SMILES: CC1CCN(c2c(-c3c(F)cc(F)cc3F)c(Cl)nc3ncnn23)CC1 [I, 5-chloro-7-(4-methylpiperidin-1-yl)-6-(2,4,6-trifluorophenyl)-[1,2,4]tri-azolo[1,5-a]pyrimidine]
- Efficacy in % of the untreated control (1 ppm in the spray liquor): 0%
- Efficacy in % of the untreated control (5 ppm in the spray liquor): 0%
- Efficacy in % of the untreated control (10 ppm in the spray liquor): 6%
